From ChEMBL document CHEMBL1201862, “PubChem BioAssay data set” (2004) come the findings set out here.

Test systems include U-251; PC-3; IGROV-1; BT-549; DU-145; NCI-H522; HL-60; NCI/ADR-RES; HT-29; EKVX; UO-31; HCC 2998; A549; A498; UACC-62; Malme-3M; MCF7; CAKI-1; ACHN.
What all share (assay): growth of human tumour cells (NCI), 48 h

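Following 48 hours of exposure in 96-well plates, responses at five concentrations were used to interpolate endpoints linearly. At the GI50, growth is halved.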 The source made the active and inactive calls. Cut-off read from the data, not from the text of the source: active = GI50 up to about 1.1 µM and inactive = higher.

Turning to `C=C(C)C[C@H](Sc1nc2ccccc2s1)[C@H](C)O`, the GI50 was 37.5 µM (inactive) in the test on U-251; 22.6 µM (inactive) in the test on PC-3; > 100 µM (inactive) with IGROV-1; 40.2 µM (inactive) in the test with BT-549; 88.1 µM (inactive) in the test with DU-145; 23.8 µM (inactive) in the test with NCI-H522. In addition, the GI50 is 18.9 µM (inactive) in the test with HL-60; 33 µM (inactive) in the test with NCI/ADR-RES; 31.1 µM (inactive) in the test on HT-29; 32.4 µM (inactive) in the test with EKVX; 69 µM (inactive) in the test with UO-31; 59.2 µM (inactive) in the test on HCC 2998. Besides, the GI50 is 50.5 µM (inactive) in the test with A549; 27.2 µM (inactive) in the test on A498; 52.7 µM (inactive) with UACC-62; 25.6 µM (inactive) in the test with Malme-3M; 38.3 µM (inactive) in the test on MCF7; 70.1 µM (inactive) in the test with CAKI-1. Moreover, the GI50 with ACHN was > 100 µM (inactive).

`O=C(CNC(=O)OCc1ccccc1)NCCCCC(NC(=O)OCc1ccccc1)C(=O)O` (stereo not given): the GI50 in the test with U-251, in the test with PC-3, with IGROV-1, in the test on BT-549, in the test on DU-145 and with NCI-H522 was > 100 µM (inactive) each time. Moreover, the GI50 with HL-60, in the test with NCI/ADR-RES, with HT-29, in the test with EKVX, in the test with UO-31 and in the test on HCC 2998 was > 100 µM (inactive) each time. For the same compound, the GI50 in the test with A549, with A498, with UACC-62, with Malme-3M, with MCF7 and with CAKI-1 was > 100 µM (inactive) each time. For the same compound, the GI50 in the test with ACHN was > 100 µM (inactive).

In the case of `NC(=O)CCSC(CC(=O)c1ccc(Cl)cc1)c1ccc(Cl)cc1` (stereo not given), the GI50 was 16.2 µM (inactive) with U-251; 34.6 µM (inactive) with PC-3; 16.2 µM (inactive) in the test with IGROV-1; 36.1 µM (inactive) with BT-549; 27.5 µM (inactive) in the test on DU-145; 23.2 µM (inactive) with NCI-H522. Moreover, the GI50 was 6.97 µM (inactive) in the test on HL-60; 22.8 µM (inactive) in the test with NCI/ADR-RES; 19.9 µM (inactive) with HT-29; 28.2 µM (inactive) in the test with EKVX; 26.7 µM (inactive) in the test with UO-31; 18.2 µM (inactive) in the test on HCC 2998. Besides, the GI50 in the test on A549 is 29.9 µM (inactive); in the test on A498, 22.5 µM (inactive); in the test with UACC-62 it was 16.8 µM (inactive); with Malme-3M, 24.9 µM (inactive); in the test on MCF7 it was 5.08 µM (inactive); with CAKI-1, 12.4 µM (inactive). The GI50 in the test on ACHN was 34.7 µM (inactive).

On to `COc1cc2c(cc1OC)C1(c3ccccc3)CN(C2)Cc2cc(OC)c(OC)cc21`, for which the GI50 in the test on U-251 was 22.2 µM (inactive); with PC-3, 31.3 µM (inactive); in the test with IGROV-1, 35.2 µM (inactive); with BT-549 it was 29.8 µM (inactive); in the test with DU-145, 33.7 µM (inactive); with NCI-H522, 26.2 µM (inactive). Besides, the GI50 in the test on HL-60 was 19.3 µM (inactive); with NCI/ADR-RES, 25.4 µM (inactive); in the test with HT-29, 29 µM (inactive); in the test with EKVX, 55.5 µM (inactive); in the test with UO-31, 80.9 µM (inactive); in the test with HCC 2998, 21.8 µM (inactive). Besides, the GI50 in the test on A549 is 46.3 µM (inactive); with A498, 35.2 µM (inactive); in the test with UACC-62, 32.3 µM (inactive); in the test on Malme-3M, 36.4 µM (inactive); with MCF7, 33.3 µM (inactive); with CAKI-1, 40 µM (inactive). Also, in the test on ACHN, the GI50 is 54.1 µM (inactive).

`CC(Br)CN1CCOCC1` (stereo not given): the GI50 in the test with U-251, in the test on PC-3, in the test on IGROV-1, with BT-549, in the test with DU-145 and in the test on NCI-H522 was > 100 µM (inactive) each time. In addition, the GI50 with HL-60 was 10.5 µM (inactive); with NCI/ADR-RES, > 100 µM (inactive); with HT-29 it was > 100 µM (inactive); in the test with EKVX, > 100 µM (inactive); with UO-31, > 100 µM (inactive); with HCC 2998, > 100 µM (inactive). Besides, the GI50 in the test with A549, with A498, in the test with UACC-62, in the test on Malme-3M, in the test on MCF7 and with CAKI-1 was > 100 µM (inactive) each time. In addition, in the test with ACHN, the GI50 is > 100 µM (inactive).

On to `Nc1c(C(=O)Nc2ccc([As](=O)(O)O)cc2)cnc2nnnn12`, for which the GI50 in the test on U-251, in the test with PC-3, with IGROV-1, in the test with BT-549, in the test with DU-145 and in the test with NCI-H522 was > 100 µM (inactive) in each case. Besides, the GI50 in the test with HL-60, in the test on NCI/ADR-RES, in the test with HT-29, with EKVX, in the test on UO-31 and with HCC 2998 was > 100 µM (inactive) throughout. Besides, the GI50 in the test with A549, with A498, in the test with UACC-62, in the test on Malme-3M, in the test with MCF7 and with CAKI-1 was > 100 µM (inactive) throughout. Besides, in the test on ACHN, the GI50 was > 100 µM (inactive).

Consider `N#CCCN(CCC#N)CCN(CCN(CCC#N)CCC#N)CCN(CCC#N)CCC#N`, for which the GI50 in the test with U-251, with PC-3, with IGROV-1, with BT-549, in the test with DU-145 and in the test on NCI-H522 was > 100 µM (inactive) throughout. The GI50 with HL-60, in the test with NCI/ADR-RES, with HT-29, in the test on EKVX, in the test with UO-31 and in the test with HCC 2998 was > 100 µM (inactive) throughout. In addition, the GI50 in the test on A549, in the test with A498, in the test on Malme-3M, in the test with MCF7, with CAKI-1 and with ACHN was > 100 µM (inactive) in each case.

Take `O=c1[nH]nc(Cc2ccccc2)n1/N=C/c1cccnc1`: the GI50 in the test with U-251 is > 100 µM (inactive); with PC-3, > 100 µM (inactive); with IGROV-1, > 100 µM (inactive); in the test with BT-549, 25 µM (inactive); in the test with DU-145, > 100 µM (inactive); in the test on NCI-H522, > 100 µM (inactive). Moreover, the GI50 in the test on HL-60 is > 100 µM (inactive); in the test on NCI/ADR-RES, > 100 µM (inactive); in the test on HT-29 it was > 100 µM (inactive); in the test with EKVX it was > 100 µM (inactive); in the test on UO-31, 71.6 µM (inactive); with HCC 2998, > 100 µM (inactive). The GI50 with A549 is > 100 µM (inactive); with A498 it was > 100 µM (inactive); in the test on Malme-3M it was > 100 µM (inactive); in the test on MCF7, > 100 µM (inactive); with CAKI-1, 12.4 µM (inactive); with ACHN, > 100 µM (inactive).

As to `Fc1c(F)c(C(F)(F)F)c(F)c(F)c1N/N=C\c1c[nH]c2ccccc12`, the GI50 is 3.23 µM (inactive) in the test on U-251; 2.13 µM (inactive) in the test on PC-3; 1.26 µM (inactive) in the test on IGROV-1; 1.5 µM (inactive) in the test with BT-549; 3.64 µM (inactive) in the test on DU-145; 1.74 µM (inactive) in the test on NCI-H522. Moreover, the GI50 with HL-60 was 2.54 µM (inactive); in the test on NCI/ADR-RES, 2.13 µM (inactive); with HT-29, 2.48 µM (inactive); with EKVX it was 2.84 µM (inactive); with UO-31, 1.16 µM (inactive); in the test with HCC 2998, 1.85 µM (inactive). For the same compound, the GI50 in the test with A549 was 3.16 µM (inactive); with A498, 3.44 µM (inactive); in the test on UACC-62 it was 2.44 µM (inactive); in the test on Malme-3M, 3.92 µM (inactive); in the test with MCF7, 2.69 µM (inactive); in the test on CAKI-1, 2.55 µM (inactive). In addition, in the test with ACHN, the GI50 is 6.64 µM (inactive).

Regarding `C=C(C(=O)O)[C@@H]1C[C@@H](OC(C)=O)[C@]2(C)CC/C=C(\C)CCC[C@H](C)[C@H](O)[C@@H]1O2`, the GI50 in the test on U-251 was > 100 µM (inactive); with PC-3, 39.7 µM (inactive); in the test on IGROV-1 it was 36.8 µM (inactive); in the test on BT-549 it was 25.1 µM (inactive); in the test with DU-145, 83.9 µM (inactive); in the test with NCI-H522, 18 µM (inactive). In addition, the GI50 in the test with HL-60 is 22.3 µM (inactive); with NCI/ADR-RES it was 33.3 µM (inactive); in the test on HT-29, 47.3 µM (inactive); in the test with EKVX, 45.5 µM (inactive); with HCC 2998 it was > 100 µM (inactive); with A549 it was 43 µM (inactive). Also, the GI50 with A498 is > 100 µM (inactive); with UACC-62, 47.8 µM (inactive); with Malme-3M, 61.7 µM (inactive); in the test on MCF7, 26.7 µM (inactive); with CAKI-1 it was 71 µM (inactive); in the test on ACHN, 55.7 µM (inactive).

Turning to `COCCCNc1c2ccccc2nc2ccccc12`, the GI50 in the test on PC-3 is 2.01 µM (inactive); with IGROV-1, 3.56 µM (inactive); with BT-549, 10.9 µM (inactive); in the test with DU-145, 2.52 µM (inactive); in the test on NCI-H522, 1.64 µM (inactive); with HL-60 it was 3.87 µM (inactive). For the same compound, the GI50 in the test with NCI/ADR-RES is 3.82 µM (inactive); with HT-29, 2.82 µM (inactive); in the test on EKVX, 3.59 µM (inactive); with UO-31, 2.05 µM (inactive); with HCC 2998 it was 1.56 µM (inactive); in the test on A549 it was 2.92 µM (inactive). Also, the GI50 in the test with A498 was 3.97 µM (inactive); with UACC-62, 2.18 µM (inactive); with Malme-3M, 1.87 µM (inactive); with MCF7 it was 2.34 µM (inactive); in the test with CAKI-1 it was 1.39 µM (inactive); in the test with ACHN it was 0.813 µM (active).
